Results on 20 compounds are retold here after patent US20240360146A1, “BRUTON'S TYROSINE KINASE AND MUTANT DEGRADER, COMPOSITION AND APPLICATION THEREOF” (HANGZHOU HEALZEN THERAPEUTICS CO., LTD., priority 2021, published 2024).

Where only a bound is given, the exact number is not on record here.

The target in this test is T1, BTK (Homo sapiens, UniProt Q06187).
T1 construct: endogenous in cells; host or cells: Mino cells
T1 sequence (Q06187 whole entry): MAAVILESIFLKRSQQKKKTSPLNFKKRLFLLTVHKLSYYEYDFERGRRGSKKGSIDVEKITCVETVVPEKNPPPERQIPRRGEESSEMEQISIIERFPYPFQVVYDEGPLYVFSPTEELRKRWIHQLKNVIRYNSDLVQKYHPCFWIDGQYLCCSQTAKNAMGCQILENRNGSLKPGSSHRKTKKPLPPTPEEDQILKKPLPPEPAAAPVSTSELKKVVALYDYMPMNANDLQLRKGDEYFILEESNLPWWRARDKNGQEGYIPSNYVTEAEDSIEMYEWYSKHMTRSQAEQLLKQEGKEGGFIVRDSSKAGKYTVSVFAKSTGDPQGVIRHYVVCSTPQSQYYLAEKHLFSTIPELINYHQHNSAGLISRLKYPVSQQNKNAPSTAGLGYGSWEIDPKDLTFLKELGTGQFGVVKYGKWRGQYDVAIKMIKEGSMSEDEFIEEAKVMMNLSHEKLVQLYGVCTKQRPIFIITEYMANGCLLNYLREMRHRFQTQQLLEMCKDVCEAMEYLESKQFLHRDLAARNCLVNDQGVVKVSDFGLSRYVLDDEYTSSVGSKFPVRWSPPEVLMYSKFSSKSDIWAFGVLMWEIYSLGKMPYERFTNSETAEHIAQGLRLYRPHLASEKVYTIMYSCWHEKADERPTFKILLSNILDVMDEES
The test can be described thus: BTK degradation activity test in Mino cells. The class given is cell-based. The following applies: 16 h incubation, Western blot or Elisa. Summed up:
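DC50 derived by curve fitting of BTK degradation rates versus untreated control across compound concentrations. Mino cells were exposed for 16 h; BTK levels in lysates, normalised via BCA protein, measured by Western blot or ELISA.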
For the compound `NC(=O)c1nnc(N2CCCC(N3CCN(c4cccc(F)c4)C3=O)C2)nc1Nc1ccc(C2CCN(CC3CCN(c4ccc5c(c4)C(=O)N(C4CCC(=O)NC4=O)C5=O)CC3)CC2)cc1` (centres unmarked) [Compound 066, 5-((4-(1-((1-(2-(2,6-dioxopiperidin-3-yl)-1,3-dioxoisoindol-5-yl)piperidin-4-yl)methyl)piperidin-4-yl)phenyl)amino)-3-(3-(3-(3-fluorophenyl)-2-oxoimidazolin-1-yl)piperidin-1-yl)-1,2,4-triazin-6-carboxamide], the DC50 is below 1 nM.
Consider `NC(=O)c1nnc(N2CCCC(N3CCN(c4cccnc4)C3=O)C2)nc1Nc1ccc(C2CCN(CC3CCN(c4ccc5c(c4)C(=O)N(C4CCC(=O)NC4=O)C5=O)CC3)CC2)cc1` (centres unmarked) [Compound 067, 5-((4-(1-((1-(2-(2,6-dioxopiperidin-3-yl)-1,3-dioxoisoindol-5-yl)piperidin-4-yl)methyl)piperidin-4-yl)phenyl)amino)-3-(3-(2-oxo-3-(pyridin-3-yl)imidazolin-1-yl)piperidin-1-yl)-1,2,4-triazin-6-carboxamide], for which the DC50 is below 1 nM.
In the case of `CN1C(=O)N(C2CCCN(c3nnc(C(N)=O)c(Nc4ccc(C5CCN(CC6CCN(c7ccc8c(c7)C(=O)N(C7CCC(=O)NC7=O)C8=O)CC6)CC5)cc4)n3)C2)CC12CC2` (centres unmarked) [Compound 068, 5-((4-(1-((1-(2-(2,6-dioxopiperidin-3-yl)-1,3-dioxoisoindol-5-yl)piperidin-4-yl)methyl)piperidin-4-yl)phenyl)amino)-3-(3-(4-methyl-5-oxo-4,6-diazaspirocyclo[2.4]heptan-6-yl)piperidin-1-yl)-1,2,4-triazin-6-carboxamide], the DC50 is below 1 nM.
In turn, `CN1C(=O)N(C2CCCN(c3nnc(C(N)=O)c(Nc4ccc(C5CCN(CC6CCN(c7ccc8c(c7)C(=O)N(C7CCC(=O)NC7=O)C8=O)CC6)CC5)cc4)n3)C2)CC12CCC2` (centres unmarked) [Compound 069, 5-((4-(1-((1-(2-(2,6-dioxopiperidin-3-yl)-1,3-dioxoisoindol-5-yl)piperidin-4-yl)methyl)piperidin-4-yl)phenyl)amino)-3-(3-(5-methyl-6-oxo-5,7-diazaspirocyclo[3.4]octan-7-yl)piperidin-1-yl)-1,2,4-triazin-6-carboxamide] came in with a DC50 below 1 nM.
The result for `NC(=O)c1nnc(N2CCCC(N3CC4CCCN4C3=O)C2)nc1Nc1ccc(C2CCN(CC3CCN(c4ccc5c(c4)C(=O)N(C4CCC(=O)NC4=O)C5=O)CC3)CC2)cc1` (centres unmarked) [Compound 070, 5-((4-(1-((1-(2-(2,6-dioxopiperidin-3-yl)-1,3-dioxoisoindol-5-yl)piperidin-4-yl)methyl)piperidin-4-yl)phenyl)amino)-3-(3-(3-oxytrihydro-1H-pyrrolo[1,2-c]imidazol-2(3H)-yl)piperidin-1-yl)-1,2,4-triazin-6-carboxamide] reads below 1 nM.
With `CN1CCN(C2CC3CC2N(c2nnc(C(N)=O)c(Nc4ccc(C5CCN(CC6CCN(c7ccc8c(c7)C(=O)N(C7CCC(=O)NC7=O)C8=O)CC6)CC5)cc4)n2)C3)C1=O` (centres unmarked) [Compound 071, 5-((4-(1-((1-(2-(2,6-dioxopiperidin-3-yl)-1,3-dioxoisoindol-5-yl)piperidin-4-yl)methyl)piperidin-4-yl)phenyl)amino)-3-(6-(3-methyl-2-oxoimidazolin-1-yl)-2-azabicyclo[2.2.1]heptan-2-yl)-1,2,4-triazin-6-carboxamide], the DC50 was above 1 nM.
The result for `NC(=O)c1nnc(N2CC3CC(N4CCN(C5CCCC5)C4=O)C2C3)nc1Nc1ccc(C2CCN(CC3CCN(c4ccc5c(c4)C(=O)N(C4CCC(=O)NC4=O)C5=O)CC3)CC2)cc1` (centres unmarked) [Compound 072, 3-(6-(3-cyclopentyl-2-oxoimidazolin-1-yl)-2-azabicyclo[2.2.1]heptan-2-yl)-5-((4-(1-((1-(2-(2,6-dioxopiperidin-3-yl)-1,3-dioxoisoindol-5-yl)piperidin-4-yl)methyl)piperidin-4-yl)phenyl)amino)-1,2,4-triazin-6-carboxamide] reads below 1 nM.
Regarding `NC(=O)c1nnc(N2CC3CC(N4CC5CCCN5C4=O)C2C3)nc1Nc1ccc(C2CCN(CC3CCN(c4ccc5c(c4)C(=O)N(C4CCC(=O)NC4=O)C5=O)CC3)CC2)cc1` (centres unmarked) [Compound 074, 5-((4-(1-((1-(2-(2,6-dioxopiperidin-3-yl)-1,3-dioxoisoindol-5-yl)piperidin-4-yl)methyl)piperidin-4-yl)phenyl)amino)-3-(6-(3-oxotetrahydro-1H-pyrrolo[1,2-c]imidazol-2(3H)-yl)-2-azabicyclo[2.2.1]heptan-2-yl)-1,2,4-triazin-6-carboxamide], the DC50 was below 1 nM.
The result for `CN1CCN(C2CC3CCC2N(c2nnc(C(N)=O)c(Nc4ccc(C5CCN(CC6CCN(c7ccc8c(c7)C(=O)N(C7CCC(=O)NC7=O)C8=O)CC6)CC5)cc4)n2)C3)C1=O` (centres unmarked) [Compound 075, 5-((4-(1-((1-(2-(2,6-dioxopiperidin-3-yl)-1,3-dioxoisoindol-5-yl)piperidin-4-yl)methyl)piperidin-4-yl)phenyl)amino)-3-(6-(3-methyl-2-oxoimidazolin-1-yl)-2-azabicyclo[2.2.2]octan-2-yl)-1,2,4-triazin-6-carboxamide] reads above 1 nM.
Turning to `CN1CCN(C2CCCN(c3nnc(C(N)=O)c(Nc4ccc(C5CCN(CC6CCN(c7ccc8c(c7)C(=O)N(C7CCC(=O)NC7=O)C8=O)C6)CC5)cc4)n3)C2)C1=O` (centres unmarked) [Compound 076, 5-((4-(1-((1-(2-(2,6-dioxopiperidin-3-yl)-1,3-dioxoisooctyl-5-yl)pyrrolidin-3-yl)methyl)piperidin-4-yl)phenyl)amino)-3-(3-(3-methyl-2-oxoimidazolin-1-yl)piperidin-1-yl)-1,2,4-triazin-6-carboxamide], the DC50 was below 1 nM.
Compound `CN1CCN(C2CCCN(c3nnc(C(N)=O)c(Nc4ccc(C5CCN(C6CN(c7ccc8c(c7)C(=O)N(C7CCC(=O)NC7=O)C8=O)C6)CC5)cc4)n3)C2)C1=O` (centres unmarked) [Compound 077, 5-((4-(1-(1-(2-(2,6-dioxopiperidin-3-yl)-1,3-dioxoisoindol-5-yl)azetidin-3-yl)piperidin-4-yl)phenyl)amino)-3-(3-(3-methyl-2-oxoimidazolin-1-yl)piperidin-1-yl)-1,2,4-triazin-6-carboxamide] gave a 50% degradation concentration (DC50) below 1 nM.
Consider `CN1CCN(C2CCCN(c3nnc(C(N)=O)c(Nc4ccc(C5(C)CCN(C6CCN(c7ccc8c(c7)C(=O)N(C7CCC(=O)NC7=O)C8=O)CC6)CC5)cc4)n3)C2)C1=O` (centres unmarked) [Compound 078, 5-((4-(1′-(2-(2,6-dioxopiperidin-3-yl)-1,3-dioxoisoindol-5-yl)-4-methyl-[1,4′-bipiperidin]-4-yl)phenyl)amino)-3-(3-(3-methyl-2-oxoimidazolidin-1-yl)piperidin-1-yl)-1,2,4-triazin-6-carboxamide], for which the DC50 is below 1 nM.
The result for `CN1CCN(C2CCCN(c3nnc(C(N)=O)c(Nc4ccc(C5(C)CCN(C6CN(c7ccc8c(c7)C(=O)N(C7CCC(=O)NC7=O)C8=O)C6)CC5)cc4)n3)C2)C1=O` (centres unmarked) [Compound 079, 5-((4-(1-(1-(2-(2,6-dioxopiperidin-3-yl)-1,3-dioxoisoindol-5-yl)azetidin-3-yl)-4-methylpiperidin-4-yl)phenyl)amino)-3-(3-(3-methyl-2-oxoimidazolin-1-yl)piperidin-1-yl)-1,2,4-triazin-6-carboxamide] reads below 1 nM; that for `CN1CCN(C2CCCN(c3nnc(C(N)=O)c(Nc4ccc5c(c4)CCN(C4CN(c6ccc7c(c6)C(=O)N(C6CCC(=O)NC6=O)C7=O)C4)C5)n3)C2)C1=O` (centres unmarked) [Compound 080], below 1 nM.
The result for `CN1CCN(C2CCCN(c3nnc(C(N)=O)c(Nc4ccc5c(c4)CCN(CC4CCN(c6ccc7c(c6)C(=O)N(C6CCC(=O)NC6=O)C7=O)CC4)C5)n3)C2)C1=O` (centres unmarked) [Compound 081, 5-((2-((1-(2-(2,6-dioxopiperidin-3-yl)-1,3-dioxoisoindol-5-yl)piperidin-4-yl)methyl)-1,2,3,4-tetrahydroisoquinolin-6-yl)amino)-3-(3-(3-methyl-2-oxoimidazolin-1-yl)piperidin-1-yl)-1,2,4-triazin-6-carboxamide] reads below 1 nM; that for `CN1CCN(C2CCCN(c3nnc(C(N)=O)c(Nc4ccc(N5CCN(CC6CCN(c7ccc8c(c7)C(=O)N(C7CCC(=O)NC7=O)C8=O)CC6)CC5)cc4)n3)C2)C1=O` (centres unmarked) [Compound 082, 5-((4-(4-((1-(2-(2,6-dioxopiperidin-3-yl)-1,3-dioxoisoindol-5-yl)piperidin-4-yl)methyl)piperazin-1-yl)phenyl)amino)-3-(3-(3-methyl-2-oxoimidazolin-1-yl)piperidin-1-yl)-1,2,4-triazin-6-carboxamide], below 1 nM; that for `CN1CCN(C2CCCN(c3nnc(C(N)=O)c(Nc4ccc(C5CCN(C6CCN(c7ccc8c(c7)C(=O)N(C7CCC(=O)NC7=O)C8=O)CC6)CC5)cc4)n3)C2)C1=O` (centres unmarked) [Compound 083, 5-((4-(1′-(2-(2,6-dioxopiperidin-3-yl)-1,3-dioxoisoindol-5-yl)-[1,4′-bipiperidin]-4-yl)phenyl)amino)-3-(3-(3-methyl-2-oxoimidazolin-1-yl)piperidin-1-yl)-1,2,4-triazin-6-carboxamide], below 1 nM.
The result for `CN1CCN(C2CCCN(c3nnc(C(N)=O)c(Nc4ccc(N5CCC(N6CCN(CC#Cc7ccc8c(c7)CN(C7CCC(=O)NC7=O)C8=O)CC6)CC5)cc4)n3)C2)C1=O` (centres unmarked) [Compound 084] reads below 1 nM.
The compound `CN1CCN(C2CCCN(c3nnc(C(N)=O)c(Nc4ccc(C5CCN(CC6CCN(c7cc8c(cc7F)C(=O)N(C7CCC(=O)NC7=O)C8=O)CC6)CC5)cc4)n3)C2)C1=O` (centres unmarked) [Compound 085, 5-((4-(1-((1-(2-(2,6-dioxopiperidin-3-yl)-6-fluoro-1,3-dioxoisoindol-5-yl)piperidin-4-yl)methyl)piperidin-4-yl)phenyl)amino)-3-(3-(3-methyl-2-oxoimidazolin-1-yl)piperidin-1-yl)-1,2,4-triazin-6-carboxamide] returned a DC50 below 1 nM.
The result for `CN1CCN(C2CCCN(c3nnc(C(N)=O)c(Nc4ccc(C5CCN(CC6CCN(c7ccc8c(c7)C(=O)N(C7CCC(=O)NC7=O)C8)CC6)CC5)cc4)n3)C2)C1=O` (centres unmarked) [Compound 086, 5-((4-(1-((1-(2-(2,6-dioxopiperidin-3-yl)-3-oxoisoindol-5-yl)piperidin-4-yl)methyl)piperidin-4-yl)phenyl)amino)-3-(3-(3-methyl-2-oxoimidazolin-1-yl)piperidin-1-yl)-1,2,4-triazin-6-carboxamide] reads below 1 nM.
